Tested on: Normal Human Dermal Fibroblasts
Test: Mitochondrial mass (MitoTracker Green FM) in Normal Human Dermal Fibroblasts
Assay type: cell-based
Details: 20 mM, insulin 100 nM
Method: Normal Human Dermal Fibroblasts were isolated from skin biopsy coming from a breast reduction surgery on a person. 10′000 cells per well were seeded in a black 96-wells plate with DMEM (Dulbecco's Modified Eagle's Medium, Gibco) supplemented with 10% FCS (Fetal Calf Serum, Biowest) and 1% antibiotics (Sigma Aldrich) and were cultured for 72 hours in an incubator at 37° C. in a humid atmosphere containing 5% CO2. Cells were then rinsed two times with PBS (Phosphate Buffer Saline) before being incubated with FCS-free DMEM medium overnight in the same incubator. On the next day, the cells were treated with (i) mannose at 20 mM, (ii) mannose-6-phosphate at 20 mM or (iii) the above-mentioned Mannose-6-Phosphate complex at 20 mM (n=3) in the presence of insulin (100 nM). After 1 hour and 48 hours of treatment, MitoTracker™ Green FM (ThermoFisher) was added directly in each well for a final concentration of 200 nM and the plate was incubated in the dark in the incubator for 15 minutes. Cells were then rinsed off two times with PBS and each well was filled with 200 μl PBS. Fluorescence intensity of MitoTracker™ Green FM was measured with a microplate reader (Excitation wavelength: 488 nm/Emission wavelength: 525 nm). In this study, the mitochondrial mass in cells was determined using the fluorescence intensity emitted by MitoTracker™ Green FM.

Question: What does the source list for O=C[C@@H](O)[C@@H](O)[C@H](O)[C@H](O)COP(=O)(O)O [mannose-6-phosphate]?
Answer: decrease of MitoTracker Green FM specific signal (mitochondrial mass) (1 hour treatment): −53%; decrease of MitoTracker Green FM specific signal (mitochondrial mass) (48 hours of treatment): −60%

— US12290587B2, “Anti-aging cosmetic compositions” (GIVAUDAN SA, priority 2019, dated 2025)
